Results: patent publication US11685902B2, “Production method for kidney-like tissue” (Tokushima University, priority 2016, dated 2023)

What was measured:
[1] = test system: kidney-like microspheres (HUVEC, hMSC, HEK, hMC, HK2); format: cell-based, human
Procedure: Kidney-like organoids were produced in vitro by co-culturing endothelial cells (HUVEC), mesenchymal stem cells (hMSC), and human embryonic kidney cells (HEK) with human mesangial cells (hMC) and human renal tubular cells (HK2). 5×10^4 hMSC, 2×10^5 HUVEC, 5×10^4 HEK, 5×10^4 hMC, and 5×10^4 HK 2 were suspended in 2 ml 10% FCS or MSCGM, and seeded in a MicroWell culture plate. After incubation in a 5% CO2 humidified incubator at 37° C. for 24 hours, formation of cell aggregates and microspheres was observed (FIG. 6). The resulting kidney-like microspheres maintained their spherical morphology for 20 days or longer. • 7. Analysis of Gene Expression
RT-PCR analysis was performed on mRNA of kidney-like microspheres using five types of cells. Total RNA was extracted from the spheres using a TRIzol reagent (Invitrogen), and reverse-transcribed with an oligo (dT) primer using a SuperScript First-Strand Synthesis kit (Invitrogen) to produce first-strand cDNA. Subsequently, PCR was performed to detect the expression of renal tubular cell-specific genes, renal tubular injury marker (epithelial-mesenchymal transition (EMT)) genes, and GAPDH. […] The influence of cisplatin was analyzed by adding cisplatin to the culture solution to a final concentration of 5 μM, and extracting RNA after 3 hours and after 24 hours for analysis. […]

[2] = test system: three-dimensional kidney-like tissue (embryonic kidney cells, mesenchymal stem cells, proximal renal tubular cells, vascular endothelial cells); format: cell-based
Procedure: Embryonic kidney cells, mesenchymal stem cells, proximal renal tubular cells, and vascular endothelial cells were co-cultured for 24 hours to obtain a self-organized, three-dimensional kidney-like tissue (FIG. 9 (A)). This was exposed to cisplatin at a concentration of 5 μM, and spheres were collected after 3 hours and after 24 hours. After extraction of RNA, changes in gene expression were analyzed by the RT-PCR method. After the culture solution of the spheres was collected and cell components were separated by centrifugation, β2 microglobulin was measured with a “Lumipulse Presto β2-M” (produced by Fujirebio, Inc.) kit (FIG. 9 (B)). Further, changes in the shape of the spheres were imaged using an optical microscope (FIG. 9 (C)). […] Use of Microspheres as Kidney Model (Podocyte Injury)

[3] = test system: three-dimensional kidney-like tissue (embryonic kidney cells, mesenchymal stem cells, vascular endothelial cells); assay: Kidney model (podocyte injury): three-dimensional kidney-like tissue exposed to puromycin, nephrin qRT-PCR; format: cell-based; settings: puromycin 50 μg/ml, 24 hours, qRT-PCR (FIG. 10)
Procedure: Embryonic kidney cells, mesenchymal stem cells, and vascular endothelial cells were co-cultured for 24 hours to obtain a self-organized, three-dimensional kidney-like tissue. The kidney-like tissue was exposed to puromycin at a concentration of 50 μg/ml. After 24 hours, spheres were collected. After extraction of RNA, changes in nephrin gene expression were analyzed by the qRT-PCR method (FIG. 10). […] Using this model allows for screening an effective drug for podocyte injury. • 12. Use as Pathophysiological Analysis System for Human Refractory Renal Disease

N.N.[Cl][Pt][Cl] [cisplatin]
expression of genes constitutively expressed in podocytes [1]: reduction | renal damage reflected by analysis results (gene expression, β2 microglobulin, sphere shape) [2]: renal tubular injury at the acute phase and podocyte injury at the chronic phase

CN(C)C(=N)N=C(N)N [metformin]
abnormal changes in gene expression in acute kidney injury caused by cisplatin ([1]; pre-administration, 3 hours after cisplatin administration (left side of FIG. 7)): inhibited

COc1ccc(C[C@H](N)C(=O)N[C@H]2[C@@H](O)[C@H](n3cnc4c(N(C)C)ncnc43)O[C@@H]2CO)cc1 [puromycin]
podocyte injury (changes in nephrin gene expression) [3]: podocyte injury model, which was conventionally prepared by using mice, can be reproduced
